Biological target: T1, Neuromedin-K receptor (Homo sapiens, UniProt P29371)
T1 sequence (P29371 whole entry): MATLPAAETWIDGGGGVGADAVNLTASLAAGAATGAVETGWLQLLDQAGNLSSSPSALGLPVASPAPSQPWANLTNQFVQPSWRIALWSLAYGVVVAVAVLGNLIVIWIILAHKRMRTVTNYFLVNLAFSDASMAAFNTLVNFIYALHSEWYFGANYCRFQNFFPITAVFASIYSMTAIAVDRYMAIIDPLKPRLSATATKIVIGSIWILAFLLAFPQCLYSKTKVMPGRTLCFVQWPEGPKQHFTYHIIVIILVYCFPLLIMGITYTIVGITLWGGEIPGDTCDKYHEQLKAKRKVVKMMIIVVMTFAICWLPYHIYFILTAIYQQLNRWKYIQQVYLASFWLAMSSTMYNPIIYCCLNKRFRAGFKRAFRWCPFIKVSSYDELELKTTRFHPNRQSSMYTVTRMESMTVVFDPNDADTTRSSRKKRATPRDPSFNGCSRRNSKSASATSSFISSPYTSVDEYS
Test: [3H]SR142801 Competition Binding Assay: hNK3 receptor binding experiment were performed using [3H]SR142801 (Catalog No. TRK1035, specific activity: 74.0 Ci/mmol, Amersham, GE Healthcare UK limited, Buckinghamshire, UK) and membrane isolated from HEK293 cells transiently expressing recombinant human NK3 receptor. After thawing, the membrane homogenates were centrifuged at 48,000×g for […] at 4° C., the pellets were resuspended in the 50 mM Tris-HCl, 4 mM MnCl2, 1 μM phosphoramidon, 0.1% BSA binding buffer at pH 7.4 to a final assay concentration of 5 μg protein/well. For inhibition experiments, membranes were incubated with [3H]SR142801 at a concentration equal to KD value of radioligand and 10 concentrations of the inhibitory compound (0.0003-10 μM) (in a total reaction volume of 500 μl) for 75 min at room temperature (RT). At the end of the incubation, membranes were filtered onto unitfilter (96-well white microplate with bonded GF/C filter preincubated 1 h in 0.3% PEI+0.3% BSA, Packard BioScience, Meriden, Conn.) with a Filtermate 196 harvester (Packard BioScience) and washed 4 times with ice-cold 50 mM Tris-HCl, pH 7.4 buffer. Nonspecific binding was measured in the presence of 10 μM SB222200 for both radioligands. […]
Assay type: cell membranes

Structure (SMILES): CCN(C(=O)Oc1ccc(F)cc1)[C@@H]1CN(C(=O)C2CCN(c3ccc(C(F)(F)F)cn3)CC2)C[C@H]1c1ccc(F)c(F)c1
- Ki: 9 nM

Structure (SMILES): CCN(C(=O)Oc1ccc(F)cc1)[C@@H]1CN(C(=O)C2CCN(c3ccc(OC(C)=O)cn3)CC2)C[C@H]1c1ccc(Cl)cc1
- Ki: 6 nM

From ChEMBL document CHEMBL3886745, “Pyrrolidine compounds” (2016)
